Data taken from patent publication US20070208087A1, “Compounds, compositions and methods for the treatment of inflammatory diseases” (priority 2001, published 2007).
Where “and” joins values, the source holds several entries; their conditions need not be identical. Equal entries are not always repeated. Where two headings read alike, the source gives them in different places.

Experiments:
Format in all cases: cell-based
Microglial cells [1] = test: Dose response inhibition of NO release from microglia, 0.5-500 μM (Example 9); details: for μM NO release / μM NO release (No LPS average subtracted): 3 replicates
Method: This experiment was designed to determine the dose response inhibition of NO release from microglia by bis- and tris-dihydroxyaryl compounds when stimulated with LPS/IFNγ. Earlier experiments have demonostrated that some bis- and tris-dihydroxyaryl compounds are good inhibitors of NO release from microglia. This experiment is designed to determine a dose response for various effective bis- and tris-dihydroxyaryl compounds. Microglial cells were plated into 96 well plates at 1×10^5 cells/ml. At 48 hours, media was exchanged for media containing 10 ng/ml IFNγ and 10 μg/ml LPS and the following compounds 3, 4, 21, 26 and the positive control L-NAME. The doses tested were: 0.5 μM, 1.0 μM, 5.0 μM, 10 μM, 25 μM, 50 μM, 100 μM, 250 μM, and 500 μM. Nitric oxide release was measured after 48 hours using the Griess reaction.

Microglial cells [2] = test: Dose response inhibition of NO release from microglia, 0.75-200 μM (Example 8)
Method in brief: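 Microglia plated at 1×10^5 cells/ml, stimulated with LPS/IFNγ and treated at 0.75, 1.56, 3.125, 6.25, 12.5, 25, 50, 100 and 200 μM. NO release measured after 48 hours by Griess reaction.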

[3] = system: TNF-α release from microglia; test: TNF-α release from LPS/IFNγ stimulated microglia, TNF-α ELISA (Example 11); details: 50 uM compound, TNF-α release, 10 ug LPS and 10 ng IFNγ, 24 hours
Method in brief: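 Microglia pretreated 1 h with 50 μM bis-/tris-dihydroxyaryl compound, then stimulated with 10 μg/ml LPS + 10 ng/ml IFNγ for 24 h. Medium sampled, stored at −80°, diluted 1:50 and TNF-α measured by ELISA.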

microglia = test: Ranking of NO release inhibition (Example 12); details: Microglia, ranking table
Excerpt: The bis- and tris-dihydroxyaryl compounds were ranked in order of effectiveness for the inhibition of NO release as set out in Table 8.

[4] = dose 0.5 μM, LPS/IFNγ, 48 hours
[5] = dose 100 μM, LPS/IFNγ, 48 hours
[6] = dose 250 μM, LPS/IFNγ, 48 hours
[7] = dose 500 μM, LPS/IFNγ, 48 hours
[8] = dose 0.75 μM, 48 hours, single replicates
[9] = dose 1.56 μM, 48 hours, single replicates
[10] = dose 3.125 μM, 48 hours, single replicates
[11] = dose 6.25 μM, 48 hours, single replicates
[12] = dose 12.5 μM, 48 hours, single replicates
[13] = dose 25 μM, 48 hours, single replicates
[14] = dose 50 μM, 48 hours, single replicates
[15] = dose 100 μM, 48 hours, single replicates
[16] = dose 200 μM, 48 hours, single replicates

O=C(N[C@@H]1CCCC[C@H]1NC(=O)c1ccc(O)c(O)c1)c1ccc(O)c(O)c1 (relative stereo) [Compound 26, N,N′-bis(3,4-dihydroxybenzoyl)-trans-1,2-diaminocyclohexane]
inhibition at 0.5 µM (Microglial cells [1]; Microglia, 48 h, dose 0.5 μM, NO release, LPS/IFNγ, 48 hours, read-out: Avg % Inhibition): -4.06%
inhibition at 1 µM (Microglial cells [1]; Microglia, 48 h, dose 1 μM, NO release, LPS/IFNγ, 48 hours, read-out: Avg % Inhibition): 0.51%
inhibition at 5 µM (Microglial cells [1]; Microglia, 48 h, dose 5 μM, NO release, LPS/IFNγ): -4.31%
inhibition at 10 µM (Microglial cells [1]; Microglia, 48 h, dose 10 μM, NO release, LPS/IFNγ): -1.01%
inhibition at 25 µM (Microglial cells [1]; Microglia, 48 h, dose 25 μM, NO release, LPS/IFNγ): 6.85%
inhibition at 50 µM (Microglial cells [1]; Microglia, 48 h, dose 50 μM, NO release, LPS/IFNγ): 6.59%
inhibition at 100 µM (Microglial cells [1]; Microglia, 48 h, dose 100 μM, NO release, LPS/IFNγ, 48 hours, read-out: Avg % Inhibition): 16.2%
inhibition at 100 µM (Microglial cells [1]; Microglia, 48 h, dose 100 μM, individual replicates, NO release, LPS/IFNγ, 48 hours, read-out: % inhibition): 17.2%
inhibition at 250 µM (Microglial cells [1]; Microglia, 48 h, dose 250 μM, NO release, LPS/IFNγ, 48 hours, read-out: Avg % Inhibition): 35.2%
inhibition at 250 µM (Microglial cells [1]; Microglia, 48 h, dose 250 μM, individual replicates, NO release, LPS/IFNγ, 48 hours, read-out: % inhibition): 36.3%
inhibition at 500 µM (Microglial cells [1]; Microglia, 48 h, dose 500 μM, NO release, LPS/IFNγ, 48 hours, read-out: Avg % Inhibition): 99.5%
inhibition at 500 µM (Microglial cells [1]; Microglia, 48 h, dose 500 μM, individual replicates, NO release, LPS/IFNγ, 48 hours, read-out: % inhibition): 98.4%
inhibition at 500 µM (Microglial cells [1]; Microglia, 48 h, highest concentration tested (500 μM), 48 hours, read-out: inhibited NO release by): 99%
μM NO release (Microglial cells [1]; [4]): 21.667 µM and 19.306 µM and 21.111 µM
μM NO release (No LPS average subtracted) (Microglial cells [1]; [4]): 19.97 µM and 17.61 µM and 19.41 µM
% inhibition (Microglial cells [1]; dose 0.5 μM, individual replicates, NO release, LPS/IFNγ, 48 hours): −9.38% and 3.55% and −6.34%
μM NO release (Microglial cells [1]; dose 1 μM, LPS/IFNγ, 48 hours): 19.722 µM and 19.028 µM and 20.833 µM
μM NO release (No LPS average subtracted) (Microglial cells [1]; dose 1 μM, LPS/IFNγ, 48 hours): 18.02 µM and 17.33 µM and 19.13 µM
% inhibition (Microglial cells [1]; dose 1 μM, individual replicates, NO release, LPS/IFNγ, 48 hours): 1.27% and 5.07% and −4.82%
μM NO release (Microglial cells [1]; dose 5 μM, LPS/IFNγ, 48 hours): 20.000 µM and 21.528 µM and 20.694 µM
μM NO release (No LPS average subtracted) (Microglial cells [1]; dose 5 μM, LPS/IFNγ, 48 hours): 18.30 µM and 19.83 µM and 18.99 µM
% inhibition (Microglial cells [1]; dose 5 μM, individual replicates, NO release, LPS/IFNγ, 48 hours): −0.25% and −8.62%
μM NO release (Microglial cells [1]; dose 10 μM, LPS/IFNγ, 48 hours): 20.139 µM and 19.583 µM and 20.694 µM
μM NO release (No LPS average subtracted) (Microglial cells [1]; dose 10 μM, LPS/IFNγ, 48 hours): 18.44 µM and 17.88 µM and 18.99 µM
% inhibition (Microglial cells [1]; dose 10 μM, individual replicates, NO release, LPS/IFNγ, 48 hours): 2.03%
μM NO release (Microglial cells [1]; dose 25 μM, LPS/IFNγ, 48 hours): 18.194 µM and 18.333 µM and 19.583 µM
μM NO release (No LPS average subtracted) (Microglial cells [1]; dose 25 μM, LPS/IFNγ, 48 hours): 16.49 µM and 16.63 µM and 17.88 µM
% inhibition (Microglial cells [1]; dose 25 μM, individual replicates, NO release, LPS/IFNγ, 48 hours): 9.64% and 8.88% and 2.03%
μM NO release (Microglial cells [1]; dose 50 μM, LPS/IFNγ, 48 hours): 18.333 μM (2×) and 19.583 μM
μM NO release (No LPS average subtracted) (Microglial cells [1]; dose 50 μM, LPS/IFNγ, 48 hours): 16.63 μM (2×) and 17.88 μM
% inhibition (Microglial cells [1]; dose 50 μM, individual replicates, NO release, LPS/IFNγ, 48 hours): 8.88% (2×) and 2.03%
μM NO release (Microglial cells [1]; [5]): 16.806 μM (2×) and 17.361 μM
μM NO release (No LPS average subtracted) (Microglial cells [1]; [5]): 15.11 μM (2×) and 15.66 μM
% inhibition (Microglial cells [1]; dose 100 μM, individual replicates, NO release, LPS/IFNγ, 48 hours): 14.20%
μM NO release (Microglial cells [1]; [6]): 13.333 µM and 13.194 µM and 14.028 µM
μM NO release (No LPS average subtracted) (Microglial cells [1]; [6]): 11.63 µM and 11.49 µM and 12.33 µM
% inhibition (Microglial cells [1]; dose 250 μM, individual replicates, NO release, LPS/IFNγ, 48 hours): 37.03% and 32.46%
μM NO release (Microglial cells [1]; [7]): 2.000 µM and 1.500 µM and 1.867 µM
μM NO release (No LPS average subtracted) (Microglial cells [1]; [7]): 0.30 µM and -0.20 µM and 0.17 µM
% inhibition (Microglial cells [1]; dose 500 μM, individual replicates, NO release, LPS/IFNγ, 48 hours): 101.10% and 99.09%
inhibition at 0.75 µM (Microglial cells [2]; Microglia, 48 h, dose 0.75 μM): -1.78%
inhibition at 1.56 µM (Microglial cells [2]; Microglia, 48 h, dose 1.56 μM): 6%
inhibition at 3.125 µM (Microglial cells [2]; Microglia, 48 h, dose 3.125 μM): 5.78%
inhibition at 6.25 µM (Microglial cells [2]; Microglia, 48 h, dose 6.25 μM, 48 hours, read-out: Avg % Inhibition): 0.428%
inhibition at 12.5 µM (Microglial cells [2]; Microglia, 48 h, dose 12.5 μM, 48 hours, read-out: Avg % Inhibition): 10.1%
inhibition at 12.5 µM (Microglial cells [2]; Microglia, 48 h, dose 12.5 μM, 48 hours, single replicates, read-out: % inhibition): 10.1%
inhibition at 25 µM (Microglial cells [2]; Microglia, 48 h, dose 25 μM, 48 hours, read-out: Avg % Inhibition): 10.1%
inhibition at 25 µM (Microglial cells [2]; Microglia, 48 h, dose 25 μM, 48 hours, single replicates, read-out: % inhibition): 13.3%
inhibition at 50 µM (Microglial cells [2]; Microglia, 48 h, dose 50 μM, 48 hours, read-out: Avg % Inhibition): 19.7%
inhibition at 50 µM (Microglial cells [2]; Microglia, 48 h, dose 50 μM, 48 hours, single replicates, read-out: % inhibition): 19.7%
inhibition at 100 µM (Microglial cells [2]; Microglia, 48 h, dose 100 μM, 48 hours, read-out: Avg % Inhibition): 23.6%
inhibition at 200 µM (Microglial cells [2]; Microglia, 48 h, dose 200 μM, 48 hours, read-out: Avg % Inhibition): 44.5%
inhibition at 200 µM (Microglial cells [2]; Microglia, 48 h, dose 200 μM, 48 hours, single replicates, read-out: % inhibition): 46%
μM NO release Avg (Microglial cells [2]; dose 0.75 μM, 48 hours): 24.756 µM
% inhibition (Microglial cells [2]; [8]): 1.07% and −4.91% and −1.50%
OD values (printed under head μM NO release) (Microglial cells [2]; [8]): 0.21 and 0.206 and 0.215
μM NO release (Microglial cells [2]; [8]): 24.688 µM and 24.063 µM and 25.517 µM
μM NO release Avg (Microglial cells [2]; dose 1.56 μM, 48 hours): 22.865 µM
% inhibition (Microglial cells [2]; [9]): 9.42% and 2.36% and 6.21%
OD values (printed under head μM NO release) (Microglial cells [2]; [9]): 0.198 and 0.193 and 0.204
μM NO release (Microglial cells [2]; [9]): 22.813 µM and 22.031 µM and 23.750 µM
μM NO release Avg (Microglial cells [2]; dose 3.125 μM, 48 hours): 22.917 µM
% inhibition (Microglial cells [2]; [10]): 8.14% and 2.36%
OD values (printed under head μM NO release) (Microglial cells [2]; [10]): 0.197 and 0.195 and 0.204
μM NO release (Microglial cells [2]; [10]): 22.656 µM and 22.344 µM and 23.750 µM
μM NO release Avg (Microglial cells [2]; dose 6.25 μM, 48 hours): 24.219 µM
% inhibition (Microglial cells [2]; [11]): 3.64% and −2.14% and −0.21%
OD values (printed under head μM NO release) (Microglial cells [2]; [11]): 0.208 and 0.202 and 0.211
μM NO release (Microglial cells [2]; [11]): 24.375 µM and 23.438 µM and 24.844 µM
μM NO release Avg (Microglial cells [2]; dose 12.5 μM, 48 hours): 21.875 µM
OD values (printed under head μM NO release) (Microglial cells [2]; [12]): 0.192
μM NO release (Microglial cells [2]; [12]): 21.875 µM
μM NO release Avg (Microglial cells [2]; dose 25 μM, 48 hours): 21.875 µM
OD values (printed under head μM NO release) (Microglial cells [2]; [13]): 0.197 and 0.187 and 0.192
μM NO release (Microglial cells [2]; [13]): 22.656 µM and 21.094 µM and 21.875 µM
μM NO release Avg (Microglial cells [2]; dose 50 μM, 48 hours): 19.531 µM
% inhibition (Microglial cells [2]; [14]): 18.42% and 20.99%
OD values (printed under head μM NO release) (Microglial cells [2]; [14]): 0.175 and 0.177 and 0.179
μM NO release (Microglial cells [2]; [14]): 19.219 µM and 19.531 µM and 19.844 µM
μM NO release Avg (Microglial cells [2]; dose 100 μM, 48 hours): 18.594 µM
% inhibition (Microglial cells [2]; [15]): 17.13% and 19.06% and 34.48%
OD values (printed under head μM NO release) (Microglial cells [2]; [15]): 0.154 and 0.181 and 0.178
μM NO release (Microglial cells [2]; [15]): 15.938 µM and 20.156 µM and 19.688 µM
μM NO release Avg (Microglial cells [2]; dose 200 μM, 48 hours): 13.490 µM
% inhibition (Microglial cells [2]; [16]): 40.26% and 47.32%
OD values (printed under head μM NO release) (Microglial cells [2]; [16]): 0.134 and 0.136 and 0.145
μM NO release (Microglial cells [2]; [16]): 12.813 µM and 13.125 µM and 14.531 µM
% inhibition ([3]; individual replicates, 50 µM): −12.44% and −21.81% and −16.22%
inhibition at 50 µM ([3]; Microglia, 24 h, read-out: Avg % Inhibition): -16.8%
inhibition at 50 µM (microglia): 20%
